The values below come from patent publication US10519132B2, “Isocorydine derivatives, preparation method and use thereof” (Lanzhou Institute of Chemical Physics, Chinese Academy of …, priority 2017, dated 2019).

Data set [1] relates to human liver cancer cell strain HepG2. The experiment in a line: MTT growth inhibition on HepG2.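 Note: adherent cells in 96-well plates treated with a concentration series for 24, 48 or 72 h, MTT absorbance read at 490 nm, inhibition computed relative to untreated control wells.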 Format: cell-based. The following applies: Table 2, MTT; read-out: IC50 HepG2.
The conditions of data set [2]: background; cited from earlier work.
Data set [3] deals with human cervical cancer Hela cell strains. The experiment in a line: MTT growth inhibition on Hela.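 Note: compound exposure of 24, 48 or 72 h in DMEM with 10% fetal bovine serum, MTT absorbance read at 490 nm, inhibition calculated relative to control group OD.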 The following applies: read-out: IC50 Hela; Table 2, MTT.
Protocol: By using an MTT method, a sample solution to be tested was added to a 96-well plate in which cancer cells were adherently grown. Culturing was performed for a certain period, and the growth inhibition effect of a compound on a human cancer cell strain for primary screening was measured to determine the anti-cancer activity of the compound.
Cell culture: A cell incubator was set to conditions of 37° C., 5% CO2, and a saturated humidity, cells were cultured under these conditions, and the cell medium was a DMEM complete medium, wherein 10% fetal bovine serum, 100 IU/mL penicillin, and 100 μg/mL streptomycin were comprised.
The single cell suspension was diluted to 5×10^3/100 μL after counting, inoculated on a 96-well cell culture plate (triplicate), and adherently cultured overnight;
After 24 h of adhesion, the complete medium was discarded, 100 μL-sample-solutions to be tested having different concentrations were sequentially added to the 96-well plate according to a concentration gradient, and incubations were continued for 24 h, 48 h, and 72 h;
The culture liquid was discarded, a 0.5 mg/mL MTT diluted working liquid was added, and incubation was performed for 4 h by placing in an incubator;
The culture liquid was discarded, 100 μL of DMSO was added, low-speed oscillation was performed for 10 min by placing on a shaker, and the spectrophotometric value of each well was measured at a wavelength of 490 nm by using a microplate reader. Statistical analysis was performed and tumor cell growth inhibition rate was calculated according to the equation: Growth inhibition rate=(OD value of control group−OD value of experimental group)/OD value of control group.
Culturing was performed for a certain period, the growth inhibition effect of a compound on 3 human cancer cell strains for primary screening was measured to determine the anti-cancer activity of the compound, and a growth inhibition curve was plotted.
In data set [4] the test system is human gastric cancer cell strain MGC-803. The experiment in a line: MTT growth inhibition on MGC-803.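 Note: adherent cells exposed to compound over a concentration gradient for 24, 48 and 72 h, MTT absorbance at 490 nm, inhibition relative to untreated control wells.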 The following applies: read-out: IC50 MGC-803; Table 2, MTT.

The IC50 is the concentration that gives 50% inhibition. Take `COc1cc(N)c2c(c1O)-c1c(OC)c(OC)cc3c1[C@H](C2)N(C)CC3` [NICD, 8-amino-isocorydine, reference compound]: the values for the IC50 in data set [1], in data set [3] and in data set [4] were 51.1 µM, 44.1 µM and 62.1 µM, respectively. In addition, in data set [2], the “stability on storage in an aqueous solution” value is listed as “cannot be stored in an aqueous solution for a long period”.
